In patent publication US9771333B2, “Quinazoline derivatives as TAM family kinase inhibitors” (SIGNALCHEM LIFESCIENCES CORP., priority 2013, dated 2017):
Blank lines part the entries; values can stand above or below the compound they belong to.

Columns and labels:
Assay type in all cases: biochemical
human Tyro3 = biological target: T1, human Tyro3 (Homo sapiens, UniProt Q06418); assay: Kinase enzymatic activity assay (33P-radiolabeled phosphate transfer), Tyro3; settings: recombinant human Tyro3 (455-end), poly(4:1 glu:tyr) substrate, 30 minutes
T1 construct: GST (N); made in house; host or cells: Sf9 insect cells (baculovirus)
T1 sequence (Q06418 455-890 limits assumed): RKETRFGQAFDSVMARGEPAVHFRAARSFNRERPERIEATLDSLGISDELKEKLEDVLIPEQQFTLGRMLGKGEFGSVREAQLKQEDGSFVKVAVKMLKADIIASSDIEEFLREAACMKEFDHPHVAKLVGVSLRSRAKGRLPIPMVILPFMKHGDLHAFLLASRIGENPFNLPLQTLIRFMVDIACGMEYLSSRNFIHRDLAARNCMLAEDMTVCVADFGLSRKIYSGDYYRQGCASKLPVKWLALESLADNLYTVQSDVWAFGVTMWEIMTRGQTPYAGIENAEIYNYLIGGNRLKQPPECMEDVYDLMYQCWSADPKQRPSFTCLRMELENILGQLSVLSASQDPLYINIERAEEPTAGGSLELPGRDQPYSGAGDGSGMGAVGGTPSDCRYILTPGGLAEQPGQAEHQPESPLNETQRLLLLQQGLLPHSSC
Description: (§1) The identification of compounds of the invention as Tyro3, Axl or Mer inhibitors was readily accomplished using the recombinant human Tyro3, Axl and Mer proteins and employing the ^33P-radiolabeled phosphate transfer assay for which the procedure is known to someone skilled in the art or as described in Example 9.
(§2) Recombinant human Tyro3 (455-end, the gene accession number NM_006293), human Axl (473-end, the gene accession number NM_021913) and human Mer (578-872, the gene accession number NM_006343) were independently expressed by baculovirus in Sf9 insect cells using an N-terminal GST tag. The recombinant proteins were stored at −70° C. in a medium containing 50 mM Tris-HCl, pH 7.5, 150 mM NaCl, 10 mM glutathione, 0.1 mM EDTA, 0.25 mM DTT, 0.1 mM PMSF and 25% glycerol. The recombinant proteins were aliquoted into smaller quantities after centrifugation to avoid repeated handling and multiple freeze/thaw cycles for the most favorable performance.
(§3) Kinase Assay Buffer: This buffer solution consisted of the following components: 25 mM MOPS, pH 7.2, 12.5 mM β-glycerol-phosphate, 25 mM MgCl2, 5 mM EGTA, 2 mM EDTA and DTT 0.25 mM which was added prior to use.
(§4) Kinase Dilution Buffer: Kinase Assay Buffer was diluted at a 1:4 ratio (5× dilution) with distilled water.
(§5) [^33P]-ATP assay cocktail: In a designated radioactive working area, a 250 μM [^33P]-ATP assay cocktail was prepared by the addition of the following components: 150 μL of 10 mM ATP stock solution, 100 μL [^33P]-ATP (1 mci/100 μL), and 5.75 mL of kinase assay buffer. This solution was stored in 1 mL aliquots at −20° C.
(§6) ATP stock solution (10 mM): The ATP stock solution was prepared by dissolving 55 mg of ATP in 10 mL of kinase assay buffer. It was stored in 200 μL aliquots at −20° C.
(§7) Active Kinase Stock Solution: The active recombinant kinase protein (0.1 μg/μL) was diluted with Kinase Dilution Buffer and the activity was assayed using a serial dilution method. The specific activity is expressed in nmoL/min/mg.
(§8) Substrates: poly(4:1 glu:tyr) is the substrate used for each kinase Tyro3, Axl and Mer: The peptide substrate was dissolved in water to give the final concentration of 1 mg/mL.
(§9) Test compound solution: Test compound was dissolved in DMSO to obtain a 10 mM solution. The assay solution was prepared by adding 5 μL of this solution to […] of 10% DMSO/water to obtain the final concentration of 50 μM.
(§10) The enzymatic activity of all three kinases was determined as follows. Using a 96-well plate, the wells were divided into three categories: Blank wells, […] and Test wells. In Test wells, 5 μL of the test compound solution and 5 μL of the substrate solution were added. In Control wells, 5 μL of 10% DMSO/water and 5 μL of the substrate solution were added. In Blank wells, 10 μL of 10% DMSO/water was added. To each well was added 10 μL of Active Kinase Stock Solution to make up the volume in each well to 20 μL. All test samples, controls and blanks were run in duplicate. The reaction was initiated by the addition of 5 μL of [^33P]-ATP assay cocktail, bringing the final volume up to 25 μL in every well. The mixture was incubated at room temperature for 30 minutes. The reaction was terminated by transferring 10 μL of the reaction mixture into a Millipore MultiScreen filter plate (cat. number MSPHN6B50). The filter plate was washed in a 1% phosphoric acid solution with constant gentle shaking for 15 minutes and this step was repeated once. After the plate was dried in air, scintillation fluid was added to each well and the radioactivity in each well in CPM was counted by a Microbeta TriLux. The corrected CPM in each test well was determined by subtracting the average value of Blank well values. Percentage of inhibition of the kinase enzymatic activity by the test compound was determined using the following formula: […]
(§11) The IC50 values were determined in a similar way following a serial dilution of the test compound. […]

human Axl = biological target: T2, human Axl (Homo sapiens, UniProt P30530); assay: Kinase enzymatic activity assay (33P-radiolabeled phosphate transfer), Axl; settings: recombinant human Axl (473-end), poly(4:1 glu:tyr) substrate, 30 minutes
T2 construct: GST (N); made in house; host or cells: Sf9 insect cells (baculovirus)
T2 sequence (P30530 473-894 limits assumed): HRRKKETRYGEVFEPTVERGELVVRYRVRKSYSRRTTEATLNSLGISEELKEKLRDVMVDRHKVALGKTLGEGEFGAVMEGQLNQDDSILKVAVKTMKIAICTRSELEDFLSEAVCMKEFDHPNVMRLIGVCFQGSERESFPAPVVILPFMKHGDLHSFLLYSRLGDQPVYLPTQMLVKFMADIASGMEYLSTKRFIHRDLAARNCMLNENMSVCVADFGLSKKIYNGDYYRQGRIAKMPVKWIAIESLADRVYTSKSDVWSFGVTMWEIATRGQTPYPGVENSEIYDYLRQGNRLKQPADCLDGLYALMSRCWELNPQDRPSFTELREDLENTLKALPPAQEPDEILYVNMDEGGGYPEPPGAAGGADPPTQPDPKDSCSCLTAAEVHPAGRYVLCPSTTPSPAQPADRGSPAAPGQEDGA
Description: as §1, §2, §3, §4, §5, §6, §7, §8, §9, §10, §11

human Mer = biological target: T3, human Mer (Homo sapiens, UniProt Q12866); assay: Kinase enzymatic activity assay (33P-radiolabeled phosphate transfer), Mer; settings: recombinant human Mer (578-872), poly(4:1 glu:tyr) substrate, 30 minutes
T3 construct: GST (N); made in house; host or cells: Sf9 insect cells (baculovirus)
T3 sequence (Q12866 578-872): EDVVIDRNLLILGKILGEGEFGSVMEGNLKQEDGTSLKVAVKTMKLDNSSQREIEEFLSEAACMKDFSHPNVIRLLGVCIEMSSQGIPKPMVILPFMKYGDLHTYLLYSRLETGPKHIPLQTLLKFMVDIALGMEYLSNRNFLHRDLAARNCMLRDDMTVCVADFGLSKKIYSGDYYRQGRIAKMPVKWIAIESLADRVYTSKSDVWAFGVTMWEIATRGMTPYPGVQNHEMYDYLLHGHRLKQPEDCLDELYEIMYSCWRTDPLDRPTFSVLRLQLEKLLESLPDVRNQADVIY
Description: as §1, §2, §3, §4, §5, §6, §7, §8, §9, §10, §11

Compound: CN1CCN(CCCOc2cc(OC3CCOCC3)c3c(Oc4ccc(F)cc4Cl)ncnc3c2)CC1 [Example 2.63, 4-(2-chloro-4-fluorophenoxy)-7-(3-(4-methylpiperazin-1-yl)propoxy)-5-((tetrahydro-2H-pyran-4-yl)oxy)quinazoline]
- IC50 (human Tyro3): < 500 nM
- IC50 (human Axl): < 500 nM
- IC50 (human Mer): < 500 nM

Compound: CN1CCN(CCOc2cc(OC3CCOCC3)c3c(Oc4cccc(C(=O)NCc5ccccc5)c4)ncnc3c2)CC1 [Example 2.32, N-benzyl-3-((7-(2-(4-methylpiperazin-1-yl)ethoxy)-5-((tetrahydro-2H-pyran-4-yl)oxy)quinazolin-4-yl)oxy)benzamide]
- IC50 (human Tyro3): > 10000 nM
- IC50 (human Axl): 1000 to 10000 nM
- IC50 (human Mer): > 10000 nM

Compound: CN1CCC(COc2cc(OC3CCOCC3)c3c(Sc4nc(C(F)(F)F)cs4)ncnc3c2)CC1 [Example 2.50, 2-((7-((1-methylpiperidin-4-yl)methoxy)-5-((tetrahydro-2H-pyran-4-yl)oxy)quinazolin-4-yl)thio)-4-(trifluoromethyl)thiazole]
- IC50 (human Tyro3): > 10000 nM
- IC50 (human Axl): 500 to 1000 nM
- IC50 (human Mer): 1000 to 10000 nM

Compound: COCCN1CCN(c2cc(OC3CCOCC3)c3c(Oc4ccc(F)cc4Cl)ncnc3c2)CC1 [Example 2.10, 4-(2-chloro-4-fluorophenoxy)-7-(4-(2-methoxyethyl)piperazin-1-yl)-5-((tetrahydro-2H-pyran-4-yl)oxy)quinazoline]
- IC50 (human Tyro3): < 500 nM
- IC50 (human Axl): 1000 to 10000 nM
- IC50 (human Mer): 500 to 1000 nM

Compound: CC1(C)OC[C@H](COc2cc(OC3CCOCC3)c3c(Oc4ccc(F)cc4Cl)ncnc3c2)O1 [Example 2.9, (S)-4-(2-chloro-4-fluorophenoxy)-7-((2,2-dimethyl-1,3-dioxolan-4-yl)methoxy)-5-((tetrahydro-2H-pyran-4-yl)oxy)quinazoline]
- IC50 (human Tyro3): 1000 to 10000 nM
- IC50 (human Axl): 1000 to 10000 nM
- IC50 (human Mer): 1000 to 10000 nM

Compound: c1csc(Nc2ncnc3cc(OCCCN4CCOCC4)cc(OC4CCOCC4)c23)n1 [Example 2.21, N-(7-(3-morpholinopropoxy)-5-((tetrahydro-2H-pyran-4-yl)oxy)quinazolin-4-yl)thiazol-2-amine]
- IC50 (human Tyro3): 1000 to 10000 nM
- IC50 (human Axl): < 500 nM
- IC50 (human Mer): < 500 nM

Compound: FC(F)(F)c1nnc(Nc2ncnc3cc(OCCCN4CCOCC4)cc(OC4CCOCC4)c23)s1 [Example 2.22, N-(7-(3-morpholinopropoxy)-5-((tetrahydro-2H-pyran-4-yl)oxy)quinazolin-4-yl)-5-(trifluoromethyl)-1,3,4-thiadiazol-2-amine]
- IC50 (human Tyro3): > 10000 nM
- IC50 (human Axl): 1000 to 10000 nM
- IC50 (human Mer): > 10000 nM

Now from value to compound:

- IC50 (human Tyro3): > 10000 nM
- IC50 (human Axl): < 500 nM
- IC50 (human Mer): < 500 nM
Compound: FC(F)(F)c1csc(Nc2ncnc3cc(OCCN4CCCCC4)cc(OC4CCOCC4)c23)n1 [Example 2.60, N-(7-(2-(piperidin-1-yl)ethoxy)-5-((tetrahydro-2H-pyran-4-yl)oxy)quinazolin-4-yl)-4-(trifluoromethyl)thiazol-2-amine]

- IC50 (human Tyro3): < 500 nM
- IC50 (human Axl): < 500 nM
- IC50 (human Mer): 500 to 1000 nM
Compound: CN1CCC(COc2cc(OC3CCOCC3)c3c(Oc4ccc(C(F)(F)F)cc4)ncnc3c2)CC1 [Example 4.11, 7-((1-methylpiperidin-4-yl)methoxy)-5-((tetrahydro-2H-pyran-4-yl)oxy)-4-(4-(trifluoromethyl)phenoxy)quinazoline]

- IC50 (human Tyro3): 1000 to 10000 nM
- IC50 (human Axl): < 500 nM
- IC50 (human Mer): 1000 to 10000 nM
Compound: Cc1cc(Nc2ncnc3cc(OCC4CCN(C)CC4)cc(OC4CCOCC4)c23)on1 [Example 2.40, 3-methyl-N-(7-((1-methylpiperidin-4-yl)methoxy)-5-((tetrahydro-2H-pyran-4-yl)oxy)quinazolin-4-yl)isoxazol-5-amine]

- IC50 (human Tyro3): 1000 to 10000 nM
- IC50 (human Axl): 500 to 1000 nM
- IC50 (human Mer): 500 to 1000 nM
Compound: CN1CCN(CCOc2cc(OC3CCOCC3)c3c(OC4CCCCC4)ncnc3c2)CC1 [Example 3.4, 4-(cyclohexyloxy)-7-(2-(4-methylpiperazin-1-yl)ethoxy)-5-((tetrahydro-2H-pyran-4-yl)oxy)quinazoline]

- IC50 (human Tyro3): < 500 nM
- IC50 (human Axl): 500 to 1000 nM
- IC50 (human Mer): 500 to 1000 nM
Compound: CN1CCC(COc2cc(OC3CCOCC3)c3c(Oc4cccc(C(F)(F)F)c4)ncnc3c2)CC1 [Example 4.10, 7-((1-methylpiperidin-4-yl)methoxy)-5-((tetrahydro-2H-pyran-4-yl)oxy)-4-(3-(trifluoromethyl)phenoxy)quinazoline]

- IC50 (human Tyro3): > 10000 nM
- IC50 (human Axl): < 500 nM
- IC50 (human Mer): 1000 to 10000 nM
Compound: CN1CCC(CCOc2cc(OC3CCOCC3)c3c(Nc4nc(C(F)(F)F)cs4)ncnc3c2)CC1 [Example 2.45, N-(7-(2-(1-methylpiperidin-4-yl)ethoxy)-5-((tetrahydro-2H-pyran-4-yl)oxy)quinazolin-4-yl)-4-(trifluoromethyl)thiazol-2-amine]

- IC50 (human Tyro3): 1000 to 10000 nM
- IC50 (human Axl): < 500 nM
- IC50 (human Mer): 1000 to 10000 nM
Compound: CN(C)CCN1CCN(c2cc(OC3CCOCC3)c3c(Nc4nc(C(F)(F)F)cs4)ncnc3c2)CC1 [Example 2.57, N-(7-(4-(2-(dimethyl-amino)ethyl)piperazin-1-yl)-5-((tetrahydro-2H-pyran-4-yl)oxy)-quinazolin-4-yl)-4-(trifluoromethyl)-thiazol-2-amine]

- IC50 (human Tyro3): 1000 to 10000 nM
- IC50 (human Axl): < 500 nM
- IC50 (human Mer): 500 to 1000 nM
Compound: CN1CCC(COc2cc(OC3CCOCC3)c3c(Nc4nncs4)ncnc3c2)CC1 [Example 2.38, N-(7-((1-methylpiperidin-4-yl)methoxy)-5-((tetrahydro-2H-pyran-4-yl)oxy)quinazolin-4-yl)-1,3,4-thiadiazol-2-amine]
